According to PubChem BioAssay (NCI):
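Compound exposure: 48 hours, 5 concentrations, 96-well plates. GI50 is the concentration that inhibits growth by half. TGI: concentration producing complete growth inhibition.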

Key:
Test in all cases: DTP human tumour cell line panel, 48 h; in the data active = GI50 below about 0.43 µM; inactive = the rest
NCI-H522 lung = system: NCI-H522 lung
SK-OV-3 ovarian = system: SK-OV-3 ovarian
M14 melanoma = system: M14 melanoma
CAKI-1 renal = system: CAKI-1 renal
HOP-92 NSCLC = system: HOP-92 NSCLC
OVCAR-4 ovarian = system: OVCAR-4 ovarian
T-47D breast = system: T-47D breast
SNB-19 CNS = system: SNB-19 CNS
HOP-62 NSCLC = system: HOP-62 NSCLC
PC-3 prostate = system: PC-3 prostate
A498 renal = system: A498 renal
SF-295 CNS = system: SF-295 CNS
LOX IMVI melanoma = system: LOX IMVI melanoma
RPMI-8226 leukemia = system: RPMI-8226 leukemia
MCF7 breast = system: MCF7 breast
OVCAR-8 ovarian = system: OVCAR-8 ovarian
TK-10 renal = system: TK-10 renal
SF-268 CNS = system: SF-268 CNS
EKVX NSCLC = system: EKVX NSCLC
BT-549 breast = system: BT-549 breast
RXF 393 renal = system: RXF 393 renal
IGROV1 ovarian = system: IGROV1 ovarian
HCT-116 colon = system: HCT-116 colon
UACC-62 melanoma = system: UACC-62 melanoma
HCT-15 colon = system: HCT-15 colon
HL-60(TB) leukemia = system: HL-60(TB) leukemia
OVCAR-5 ovarian = system: OVCAR-5 ovarian
ACHN renal = system: ACHN renal
NCI-H226 lung = system: NCI-H226 lung
NCI-H460 lung = system: NCI-H460 lung
NCI/ADR-RES ovarian = system: NCI/ADR-RES ovarian
UACC-257 melanoma = system: UACC-257 melanoma
UO-31 renal = system: UO-31 renal
SW-620 colon = system: SW-620 colon
A549 NSCLC = system: A549 NSCLC
OVCAR-3 ovarian = system: OVCAR-3 ovarian
SK-MEL-5 melanoma = system: SK-MEL-5 melanoma
SNB-75 CNS = system: SNB-75 CNS
NCI-H23 lung = system: NCI-H23 lung
MOLT-4 leukemia = system: MOLT-4 leukemia
786-0 renal = system: 786-0 renal
MALME-3M melanoma = system: MALME-3M melanoma
K-562 leukemia = system: K-562 leukemia
KM12 colon = system: KM12 colon
HCC-2998 colon = system: HCC-2998 colon
SK-MEL-28 melanoma = system: SK-MEL-28 melanoma
HT29 colon = system: HT29 colon
SN12C renal = system: SN12C renal
SF-539 CNS = system: SF-539 CNS
CCRF-CEM leukemia = system: CCRF-CEM leukemia
MDA-MB-435 = system: MDA-MB-435
DU-145 prostate = system: DU-145 prostate
HS 578T breast = system: HS 578T breast
MDA-MB-231 breast = system: MDA-MB-231 breast
U251 CNS = system: U251 CNS
COLO 205 colon = system: COLO 205 colon
SK-MEL-2 melanoma = system: SK-MEL-2 melanoma

CN(/N=N/c1nc(OCc2ccccc2)c2[nH]cnc2n1)C(=O)N(C)/N=N/c1nc(OCc2ccccc2)c2[nH]cnc2n1
61.5 µM: TGI (SK-MEL-5 melanoma)
54 µM: TGI (A498 renal)
85.3 µM: TGI (HS 578T breast)
> 100 µM: TGI (NCI-H522 lung) | TGI (SK-OV-3 ovarian) | TGI (M14 melanoma) | TGI (HOP-92 NSCLC) | TGI (OVCAR-4 ovarian) | TGI (T-47D breast) | TGI (SNB-19 CNS) | TGI (HOP-62 NSCLC) | TGI (PC-3 prostate) | TGI (SF-295 CNS) | TGI (LOX IMVI melanoma) | TGI (RPMI-8226 leukemia) | TGI (MCF7 breast) | TGI (OVCAR-8 ovarian) | TGI (TK-10 renal) | TGI (SF-268 CNS) | TGI (EKVX NSCLC) | TGI (BT-549 breast) | TGI (RXF 393 renal) | TGI (IGROV1 ovarian) | TGI (HCT-116 colon) | TGI (UACC-62 melanoma) | TGI (HCT-15 colon) | TGI (HL-60(TB) leukemia) | TGI (OVCAR-5 ovarian) | TGI (ACHN renal) | TGI (NCI-H226 lung) | TGI (NCI-H460 lung) | TGI (NCI/ADR-RES ovarian) | TGI (UACC-257 melanoma) | TGI (UO-31 renal) | TGI (SW-620 colon) | TGI (A549 NSCLC) | TGI (OVCAR-3 ovarian) | TGI (SNB-75 CNS) | TGI (NCI-H23 lung) | TGI (MOLT-4 leukemia) | TGI (786-0 renal) | TGI (MALME-3M melanoma) | TGI (K-562 leukemia) | TGI (KM12 colon) | TGI (SK-MEL-28 melanoma) | TGI (HT29 colon) | TGI (SN12C renal) | TGI (SF-539 CNS) | TGI (CCRF-CEM leukemia) | TGI (MDA-MB-435) | TGI (DU-145 prostate) | TGI (MDA-MB-231 breast) | TGI (U251 CNS) | TGI (COLO 205 colon) | TGI (SK-MEL-2 melanoma)
81.6 µM: TGI (HCC-2998 colon)
inactive: GI50 (NCI-H522 lung) 39.4 µM | GI50 (SK-OV-3 ovarian) 42.1 µM | GI50 (M14 melanoma) 71.2 µM | GI50 (CAKI-1 renal) 17 µM | GI50 (HOP-92 NSCLC) 29.9 µM | GI50 (OVCAR-4 ovarian) > 100 µM | GI50 (T-47D breast) 39.6 µM | GI50 (SNB-19 CNS) > 100 µM | GI50 (HOP-62 NSCLC) 96.1 µM | GI50 (PC-3 prostate) 40.5 µM | GI50 (A498 renal) 19.7 µM | GI50 (SF-295 CNS) 32.4 µM | GI50 (LOX IMVI melanoma) 37 µM | GI50 (RPMI-8226 leukemia) 38.1 µM | GI50 (MCF7 breast) 43 µM | GI50 (OVCAR-8 ovarian) 51 µM | GI50 (TK-10 renal) 27.2 µM | GI50 (SF-268 CNS) 47.6 µM | GI50 (EKVX NSCLC) 38.3 µM | GI50 (BT-549 breast) 36.6 µM | GI50 (RXF 393 renal) 79.9 µM | GI50 (IGROV1 ovarian) 34.9 µM | GI50 (HCT-116 colon) 35.2 µM | GI50 (UACC-62 melanoma) 30.8 µM | GI50 (HCT-15 colon) 35.4 µM | GI50 (HL-60(TB) leukemia) 63.7 µM | GI50 (OVCAR-5 ovarian) 63.7 µM | GI50 (ACHN renal) 31.3 µM | GI50 (NCI-H226 lung) 38.5 µM | GI50 (NCI-H460 lung) 26.1 µM | GI50 (NCI/ADR-RES ovarian) 47.2 µM | GI50 (UACC-257 melanoma) 54.7 µM | GI50 (UO-31 renal) 36.1 µM | GI50 (SW-620 colon) 71.7 µM | GI50 (A549 NSCLC) 56 µM | GI50 (OVCAR-3 ovarian) 34.8 µM | GI50 (SK-MEL-5 melanoma) 20.9 µM | GI50 (SNB-75 CNS) > 100 µM | GI50 (NCI-H23 lung) 34.7 µM | GI50 (MOLT-4 leukemia) 53.1 µM | GI50 (786-0 renal) 59.7 µM | GI50 (MALME-3M melanoma) 40.8 µM | GI50 (K-562 leukemia) 75.8 µM | GI50 (KM12 colon) 84.2 µM | GI50 (HCC-2998 colon) 19.3 µM | GI50 (SK-MEL-28 melanoma) > 100 µM | GI50 (HT29 colon) 60.5 µM | GI50 (SN12C renal) 56.6 µM | GI50 (SF-539 CNS) 38.4 µM | GI50 (CCRF-CEM leukemia) 49.6 µM | GI50 (MDA-MB-435) 49.1 µM | GI50 (DU-145 prostate) 38.9 µM | GI50 (HS 578T breast) 25.5 µM | GI50 (MDA-MB-231 breast) 41.2 µM | GI50 (U251 CNS) 49.9 µM | GI50 (COLO 205 colon) 37.5 µM | GI50 (SK-MEL-2 melanoma) 65.3 µM
63.5 µM: TGI (CAKI-1 renal)
